Data taken from PubChem BioAssay (NCI).
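Method: 48-hour compound exposure of cells in 96-well plates, five concentrations, linear interpolation of endpoints. The concentration for 50% growth inhibition is given as GI50. TGI marks complete inhibition of growth.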

Legend:
Experiment in all cases: NCI tumour cell line growth inhibition, 48 h
MDA-MB-231 breast = test system: MDA-MB-231 breast
NCI-H226 lung = test system: NCI-H226 lung
UACC-257 melanoma = test system: UACC-257 melanoma
SF-539 CNS = test system: SF-539 CNS
MCF7 breast = test system: MCF7 breast
A549 NSCLC = test system: A549 NSCLC
HCT-116 colon = test system: HCT-116 colon
SF-295 CNS = test system: SF-295 CNS
HOP-62 NSCLC = test system: HOP-62 NSCLC
EKVX NSCLC = test system: EKVX NSCLC
HCT-15 colon = test system: HCT-15 colon
T-47D breast = test system: T-47D breast
SNB-75 CNS = test system: SNB-75 CNS
SW-620 colon = test system: SW-620 colon
M14 melanoma = test system: M14 melanoma
SK-MEL-28 melanoma = test system: SK-MEL-28 melanoma
TK-10 renal = test system: TK-10 renal
K-562 leukemia = test system: K-562 leukemia
ACHN renal = test system: ACHN renal
SK-MEL-5 melanoma = test system: SK-MEL-5 melanoma
786-0 renal = test system: 786-0 renal
SNB-19 CNS = test system: SNB-19 CNS
BT-549 breast = test system: BT-549 breast
OVCAR-4 ovarian = test system: OVCAR-4 ovarian
HL-60(TB) leukemia = test system: HL-60(TB) leukemia
MDA-MB-435 = test system: MDA-MB-435
UO-31 renal = test system: UO-31 renal
COLO 205 colon = test system: COLO 205 colon
SR leukemia = test system: SR leukemia
NCI/ADR-RES ovarian = test system: NCI/ADR-RES ovarian
A498 renal = test system: A498 renal
RXF 393 renal = test system: RXF 393 renal
MALME-3M melanoma = test system: MALME-3M melanoma
SF-268 CNS = test system: SF-268 CNS
SK-OV-3 ovarian = test system: SK-OV-3 ovarian
OVCAR-3 ovarian = test system: OVCAR-3 ovarian
UACC-62 melanoma = test system: UACC-62 melanoma
NCI-H23 lung = test system: NCI-H23 lung
LOX IMVI melanoma = test system: LOX IMVI melanoma
NCI-H522 lung = test system: NCI-H522 lung
IGROV1 ovarian = test system: IGROV1 ovarian
SN12C renal = test system: SN12C renal
OVCAR-8 ovarian = test system: OVCAR-8 ovarian
OVCAR-5 ovarian = test system: OVCAR-5 ovarian
CCRF-CEM leukemia = test system: CCRF-CEM leukemia
U251 CNS = test system: U251 CNS
HOP-92 NSCLC = test system: HOP-92 NSCLC
NCI-H460 lung = test system: NCI-H460 lung
DU-145 prostate = test system: DU-145 prostate
PC-3 prostate = test system: PC-3 prostate
KM12 colon = test system: KM12 colon
RPMI-8226 leukemia = test system: RPMI-8226 leukemia
MOLT-4 leukemia = test system: MOLT-4 leukemia
HT29 colon = test system: HT29 colon
HS 578T breast = test system: HS 578T breast
SK-MEL-2 melanoma = test system: SK-MEL-2 melanoma
CAKI-1 renal = test system: CAKI-1 renal

Structure (SMILES): C[As](C)SC1OC(CO)C(O)C1O (stereo not drawn)
- GI50 (MDA-MB-231 breast): 725 nM
- TGI (MDA-MB-231 breast): 3690 nM
- GI50 (NCI-H226 lung): 1180 nM
- TGI (NCI-H226 lung): 5210 nM
- GI50 (UACC-257 melanoma): 1720 nM
- TGI (UACC-257 melanoma): 13600 nM
- GI50 (SF-539 CNS): 222 nM
- TGI (SF-539 CNS): 749 nM
- GI50 (MCF7 breast): 324 nM
- TGI (MCF7 breast): 1300 nM
- GI50 (A549 NSCLC): 2250 nM
- TGI (A549 NSCLC): > 61000 nM
- GI50 (HCT-116 colon): 302 nM
- TGI (HCT-116 colon): 1240 nM
- GI50 (SF-295 CNS): 2280 nM
- TGI (SF-295 CNS): 7160 nM
- GI50 (HOP-62 NSCLC): 3580 nM
- TGI (HOP-62 NSCLC): 13400 nM
- GI50 (EKVX NSCLC): 877 nM
- TGI (EKVX NSCLC): 10400 nM
- GI50 (HCT-15 colon): 238 nM
- TGI (HCT-15 colon): 1120 nM
- GI50 (T-47D breast): 3210 nM
- TGI (T-47D breast): > 100000 nM
- GI50 (SNB-75 CNS): 912 nM
- TGI (SNB-75 CNS): 2620 nM
- GI50 (SW-620 colon): 391 nM
- TGI (SW-620 colon): 1610 nM
- GI50 (M14 melanoma): 232 nM
- TGI (M14 melanoma): 767 nM
- GI50 (SK-MEL-28 melanoma): 522 nM
- TGI (SK-MEL-28 melanoma): 5450 nM
- GI50 (TK-10 renal): 174 nM
- TGI (TK-10 renal): 816 nM
- GI50 (K-562 leukemia): 131 nM
- TGI (K-562 leukemia): 2030 nM
- GI50 (ACHN renal): 257 nM
- TGI (ACHN renal): 1030 nM
- GI50 (SK-MEL-5 melanoma): 215 nM
- TGI (SK-MEL-5 melanoma): 583 nM
- GI50 (786-0 renal): 174 nM
- TGI (786-0 renal): 655 nM
- GI50 (SNB-19 CNS): 8680 nM
- TGI (SNB-19 CNS): > 57600 nM
- GI50 (BT-549 breast): 628 nM
- TGI (BT-549 breast): 3210 nM
- GI50 (OVCAR-4 ovarian): 1690 nM
- TGI (OVCAR-4 ovarian): 16300 nM
- GI50 (HL-60(TB) leukemia): 454 nM
- GI50 (MDA-MB-435): 154 nM
- TGI (MDA-MB-435): 746 nM
- GI50 (UO-31 renal): 97.3 nM
- TGI (UO-31 renal): 555 nM
- GI50 (COLO 205 colon): 505 nM
- TGI (COLO 205 colon): 10800 nM
- GI50 (SR leukemia): 213 nM
- TGI (SR leukemia): 3130 nM
- GI50 (NCI/ADR-RES ovarian): 825 nM
- TGI (NCI/ADR-RES ovarian): 5750 nM
- GI50 (A498 renal): 516 nM
- TGI (A498 renal): 3620 nM
- GI50 (RXF 393 renal): 176 nM
- TGI (RXF 393 renal): 2370 nM
- GI50 (MALME-3M melanoma): 84.7 nM
- TGI (MALME-3M melanoma): 650 nM
- GI50 (SF-268 CNS): 998 nM
- TGI (SF-268 CNS): 5730 nM
- GI50 (SK-OV-3 ovarian): 6420 nM
- TGI (SK-OV-3 ovarian): 22400 nM
- GI50 (OVCAR-3 ovarian): 62.3 nM
- TGI (OVCAR-3 ovarian): 203 nM
- GI50 (UACC-62 melanoma): 385 nM
- TGI (UACC-62 melanoma): 1540 nM
- GI50 (NCI-H23 lung): 610 nM
- TGI (NCI-H23 lung): 3890 nM
- GI50 (LOX IMVI melanoma): 445 nM
- TGI (LOX IMVI melanoma): 1750 nM
- GI50 (NCI-H522 lung): 167 nM
- TGI (NCI-H522 lung): 477 nM
- GI50 (IGROV1 ovarian): 1320 nM
- TGI (IGROV1 ovarian): 6560 nM
- GI50 (SN12C renal): 312 nM
- TGI (SN12C renal): 1520 nM
- GI50 (OVCAR-8 ovarian): 694 nM
- TGI (OVCAR-8 ovarian): 3150 nM
- GI50 (OVCAR-5 ovarian): 864 nM
- TGI (OVCAR-5 ovarian): 5330 nM
- GI50 (CCRF-CEM leukemia): 259 nM
- TGI (CCRF-CEM leukemia): 1130 nM
- GI50 (U251 CNS): 709 nM
- TGI (U251 CNS): 3200 nM
- GI50 (HOP-92 NSCLC): 88.4 nM
- TGI (HOP-92 NSCLC): 955 nM
- GI50 (NCI-H460 lung): 1460 nM
- TGI (NCI-H460 lung): 11700 nM
- GI50 (DU-145 prostate): 189 nM
- TGI (DU-145 prostate): 799 nM
- GI50 (PC-3 prostate): 656 nM
- TGI (PC-3 prostate): 9790 nM
- GI50 (KM12 colon): 2400 nM
- TGI (KM12 colon): 13600 nM
- GI50 (RPMI-8226 leukemia): 100 nM
- TGI (RPMI-8226 leukemia): 342 nM
- GI50 (MOLT-4 leukemia): 174 nM
- TGI (MOLT-4 leukemia): 957 nM
- GI50 (HT29 colon): 668 nM
- TGI (HT29 colon): > 100000 nM
- GI50 (HS 578T breast): 968 nM
- TGI (HS 578T breast): 7590 nM
- GI50 (SK-MEL-2 melanoma): 708 nM
- TGI (SK-MEL-2 melanoma): 2920 nM
- GI50 (CAKI-1 renal): 48.7 nM
- TGI (CAKI-1 renal): 402 nM
